Converted amounts (≈) assume the structure as drawn.
Tests used:
FaSSIF solubility = format: physicochemical; conditions: kinetic from dmso stock, Fasted state simulated intestinal fluid, 2 hr at 25° C.
Experimental: Test compounds were prepared as 10 mM stocks in DMSO and 15 μl samples transferred in duplicate into 1.5 mL glass flat bottom vials (BioTech Solutions). Fasted state simulated intestinal fluid (FaSSIF) or PBS (pH 7.4) was added to each vial to final volume of 500 μl. One PTFE encapsulated stir stick (V&P Scientific) was placed in each vial before sealing with PTFE/SIL plugs (BioTech Solutions). Vials were shaken at 1100 rpm for 2 hr at 25° C. Samples were then filtered through MultiScreen Solvinert filter plates (Millipore) via vacuum filtration. Aliquots of filtrate (5 μl) plus 5 μl DMSO were diluted in 490 μl 50% acetonitrile in water containing internal standard. The filtrate was analysed and quantified against a standard of known concentration using LC-MS/MS. Solubility values of the test compound and control compound were calculated as follows: [Sample]=(Area ratiosample*INJ VOL STD*DFsample*[STD])/(Area ratio STD*INJ VOLsample).

mPTP = mPTP activity assay in isolated rat brain mitochondria; format: biochemical; conditions: for mPTP Rat brain pIC50: isolated rat brain mitochondria
Experimental: MPTP activity was measured in brain mitochondria freshly isolated from female Sprague Dawley (250 to 300 gram) rats. Anaesthetised rats were perfused in-situ with ˜40 ml cold Dulbecco's Phosphate Buffered Saline (DPBS), then brains dissected and transferred into 30 ml Isolation Buffer (225 mM mannitol, 75 mM sucrose, 1 mM EGTA, adjusted to pH 7.4 with 1 M NaOH). The brain was minced using tweezers and a scalpel into ˜5 mm pieces then transferred into a 50 ml Potterton Dounce homogenization tube on ice containing 10 ml ice-cold isolation buffer (as above with addition of Complete Protease inhibitor; 1 tablet per 50 ml buffer). Homogenisation was carried out using a teflon pestle at 1800 rpm. The slurry was centrifuged at 2000 g for 10 min at 4° C., then the supernatant centrifuged at 12,000 g for 9 min. The pellet was resuspended with a dounce homogeniser in isolation buffer as above but with the addition of 0.02% digitonin, centrifuged at 12,000 g for 11 min and finally resuspended in 5 ml modified isolation buffer (as above but with EGTA reduced to 0.1 mM).
Test compounds were prepared in 384 well polypropylene assay plates as described above for the liver mitochondria assay. A stock mitochondria/Fluo5N assay solution was prepared in 5.6 ml assay buffer (120 mM mannitol, 40 mM MOPS, 5 mM KH2PO4, 60 mM KCl, 10 mM pyruvate, 2 mM malate, 2 mM MgCl2, 20 μM ADP, 1.26 μM oligomycin A, adjusted to pH 7.4) supplemented with Fluo5N pentapotassium salt (2 μM) and 1 ml mitochondria suspension, then transferred (15 μl) into the assay plate containing test compounds and incubated for 10 min at RT. Assay plates were then transferred to a FLIPR Tetra plate reader (Molecular Devices). Dye fluorescence was then measured every 3 sec for a total of 10 min. After 12 sec, a 2.5 μl bolus of Ca2+(75 μM) was added from a source plate containing 675 μM CaCl2 in FLIPR assay buffer. IC50 values for test compounds were calculated using the fluorescence value collected at the 10 min timepoint with % inhibition calculated using the DMSO control and cyclosporin A values at […].

PBS solubility = format: physicochemical; conditions: aqueous buffer, kinetic from dmso stock; PBS pH 7.4, 2 hr at 25° C.
Procedure, shortened: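 Compound from 10 mM DMSO stock was added in duplicate to FaSSIF or PBS (pH 7.4) and shaken at 1100 rpm for 2 hr at 25 °C. After filtration, the filtrate was quantified by LC-MS/MS with internal standard against a standard of known concentration.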

[1] = Microsomal clearance assay, rat liver microsomes; format: in vitro ADME; conditions: average value from two experiments, read-out: Rat liver microsomes intrinsic clearance (CLint)
Experimental: The microsomal stability of test compounds was evaluated using rat liver microsomes (BioIVT) with and without the cofactors nicotinamide adenine dinucleotide phosphate (NADPH) and uridine-diphosphate-glucuronic acid (UDPGA). Reactions were performed in a final volume of 250 μl pre-warmed (37° C.) 100 mM phosphate buffer containing 5 mM MgCl2, 0.025 mg/ml alamethicin, and 0.5 mg/ml rat liver microsomes. NADPH and UDPGA were included at 1 mM and 2 mM respectively, where appropriate. Reactions were started with the addition of 1 μM (final concentration) test compound. Verapamil was used as the positive control. Solutions were incubated in a water bath at 37° C. and aliquots collected at 0.5, 5, 15, 30 and 60 min. Reactions were stopped by the addition of 5 volumes of cold acetonitrile with internal standards (200 nM caffeine and 100 nM tolbutamide). Samples were centrifuged at 3220 g for 40 min. An aliquot of supernatant was diluted 1:1 In ultra-pure H20, then used for LC-MS/MS analysis. Peak areas were determined from extracted ion chromatograms. The slope value, k, was determined by linear regression of the natural logarithm of the remaining percentage of the parent drug vs. incubation time curve. The in vitro half-life (in vitro t1/2) was determined from the slope value: in vitro t1/2=0.693/k. Conversion of the in vitro t1/2 (min) into the in vitro intrinsic clearance (in vitro CLint, in μL/min/mg protein) was done using the following equation (mean of duplicate determinations): in vitro Clint=(0.693/t1/2)*(Vol of incubation (μl)/amount of protein (mg)).

Row | microsomal CLint at 1 µM [1] | SMILES | solubility at 2 h (FaSSIF solubility) | activity in the rat brain mitochondria assay (mPTP; comparison among Example compounds, in words) | mPTP Rat brain pIC50 (mPTP) | solubility at 2 h (PBS solubility)
1 |  | C[C@H]1Cc2ccccc2[C@@H]1NC(=O)/C=C/c1ccc2cn[nH]c2c1 (single isomer, unassigned) [Example 14c] | 8 µM (≈ 2.54 µg/mL) | highest activity | 8.4 | 0.6 µM (≈ 0.19 µg/mL)
2 | < 3 µL/min/mg | C[C@@H]1COc2ccccc2[C@@H]1NC(=O)/C=C/c1ccc2cn[nH]c2c1 (single isomer, unassigned) [Example 15d, (E)-3-(1H-indazol-6-yl)-N-(3-methylchroman-4-yl)acrylamide] | 7 µM (≈ 2.33 µg/mL) |  | 7.6 | 2 µM (≈ 0.667 µg/mL)
3 | 10 µL/min/mg | COCc1ccccc1NC(=O)/C=C/c1ccc2cn[nH]c2c1 [Example 29, (E)-3-(1H-indazol-6-yl)-N-(2-(methoxymethyl)phenyl)acrylamide] | 73 µM (≈ 22.4 µg/mL) |  | 6.8 | 29 µM (≈ 8.91 µg/mL)

Row | SMILES | microsomal CLint at 1 µM [1] | solubility at 2 h (FaSSIF solubility) | activity in the rat brain mitochondria assay (mPTP; comparison among Example compounds, in words) | mPTP Rat brain pIC50 (mPTP) | solubility at 2 h (PBS solubility)
4 | O=C(/C=C/c1ccc2cn[nH]c2c1)N[C@@H]1CCc2ccccc21 [Example 3, (R,E)-N-(2,3-dihydro-1H-inden-1-yl)-3-(1H-indazol-6-yl)acrylamide] | 52 µL/min/mg | 7 µM (≈ 2.12 µg/mL) |  | 7.3 | 2.2 µM (≈ 0.667 µg/mL)

— patent US12497359B2, “Acrylamide derivatives” (NRG Therapeutics Ltd, priority 2020, dated 2025)
